Results: patent publication US5760092A, “Allocolchinones and uses thereof” (Brandeis University, priority 1996, dated 1998)
pIC50: −log10 of the molar value. Several values for one entry are separate records, joined by “and”; a condition that tells them apart may be missing. Equal values may be shown once. Read-outs that look alike come from different tables or passages of the source.

What was measured:
[1] = test system: CAKI-1 renal cancer cells; assay: cells; conditions: Homo sapiens
[2] = test system: OVCAR-8 ovarian cancer cells
[3] = test system: HOP-62 non-small cell lung cancer cells
[4] = test system: OVCAR-3 ovarian cancer cells
SF-295 CNS cancer cells = assay: cells; conditions: Homo sapiens
[5] = test system: MCF7/ADR-RES breast cancer cells; assay: cells; assay type: cell-based
[6] = test system: HOP-92 non-small cell lung cancer cells
[7] = test system: SK-OV-3 ovarian cancer cells; conditions: log10 conc -6.0; 1 µM
A498 renal cancer cells [8] = assay: cells; conditions: Homo sapiens
[9] = test system: HS 578T breast cancer cells
A498 renal cancer cells [10] = conditions: log10 conc -6.0; 1 µM
[11] = test system: SK-OV-3 ovarian cancer cells; assay: cells; conditions: Homo sapiens
tubulin = assay type: biochemical, calf
[12] = test system: HS 578T breast cancer cells; assay: cells; conditions: Homo sapiens
[13] = test system: OVCAR-3 ovarian cancer cells; assay: cells; conditions: Homo sapiens
[14] = test system: HOP-62 non-small cell lung cancer cells; assay: cells; conditions: Homo sapiens
[15] = test system: CAKI-1 renal cancer cells
[16] = test system: RXF-393 renal cancer cells; assay: cells; conditions: Homo sapiens

## COc1cc2c(c(OC)c1OC)-c1ccc(C(C)=O)cc1C(NC(C)=O)CC2 (stereo not shown)
[1]; CAKI-1
  GI50: 40.1 nM
[1]; CAKI-1, read-out: Percent Growth, log10 conc -4.0
  activity at 100 µM: 37%
[1]; CAKI-1, read-out: Percent Growth, log10 conc -5.0
  activity at 10 µM: 39%
[1]; CAKI-1, read-out: Percent Growth, log10 conc -6.0
  activity at 1 µM: 36%
[1]; CAKI-1, read-out: Percent Growth, log10 conc -7.0
  activity at 0.1 µM: 35%
[1]; CAKI-1, read-out: Percent Growth, log10 conc -8.0
  activity at 0.01 µM: 73%
[2]; log10 conc -4.0, 100 µM
  Percent Growth: -45%
[2]; log10 conc -5.0
  Percent Growth: -29%
[2]; log10 conc -6.0, 1 µM
  Percent Growth: 9%
[2]; log10 conc -9.0, 0.001 µM
  Percent Growth: 25%
[2]; log10 conc -10.0, 0.0001 µM
  Percent Growth: 96%
SF-268 CNS cancer cells; log10 conc -4.0, 100 µM
  Percent Growth: 32%
SF-268 CNS cancer cells; log10 conc -5.0
  Percent Growth: 37%
SF-268 CNS cancer cells; log10 conc -6.0, 1 µM
  Percent Growth: 36% and 38%
SF-268 CNS cancer cells; log10 conc -7.0, 0.1 µM
  Percent Growth: 35% and 45%
SF-268 CNS cancer cells; log10 conc -9.0, 0.001 µM
  Percent Growth: 40%
SF-268 CNS cancer cells; log10 conc -10.0, 0.0001 µM
  Percent Growth: 92%
[3]
  GI50: < 10 nM
[3]; log10 conc -6.0, 1 µM
  Percent Growth: 31%
[3]; log10 conc -7.0, 0.1 µM
  Percent Growth: 29%
[3]; log10 conc -8.0, 0.01 µM
  Percent Growth: 45%
[4]
  TGI: > 100000 nM
[4]; log10 conc -6.0, 1 µM
  Percent Growth: 7%
[4]; log10 conc -7.0, 0.1 µM
  Percent Growth: 15%
[4]; log10 conc -8.0
  Percent Growth: 23%
SNB-19 CNS cancer cells; log10 conc -4.0, 100 µM
  Percent Growth: 6%
SNB-19 CNS cancer cells; log10 conc -5.0
  Percent Growth: 7%
SNB-19 CNS cancer cells; log10 conc -6.0, 1 µM
  Percent Growth: 36%
SNB-19 CNS cancer cells; log10 conc -8.0, 0.01 µM
  Percent Growth: 25% and 16%
SNB-19 CNS cancer cells; log10 conc -9.0, 0.001 µM
  Percent Growth: 63%
SNB-19 CNS cancer cells; log10 conc -10.0, 0.0001 µM
  Percent Growth: 99%
SF-295 CNS cancer cells; SF-295, read-out: Percent Growth, log10 conc -4.0
  activity at 100 µM: -14%
SF-295 CNS cancer cells; SF-295, read-out: Percent Growth, log10 conc -5.0
  activity at 10 µM: -10%
SF-295 CNS cancer cells; SF-295, read-out: Percent Growth, log10 conc -8.0
  activity at 0.01 µM: 6%
SF-295 CNS cancer cells; SF-295, read-out: Percent Growth, log10 conc -9.0
  activity at 0.001 µM: 16%
SF-295 CNS cancer cells; SF-295, read-out: Percent Growth, log10 conc -10.0
  activity at 0.0001 µM: 104%
[5]
  GI50: 23 nM
[5]; Homo sapiens, MCF7
  GI50: 21.1 nM
[5]; Homo sapiens, MCF7, read-out: Percent Growth, log10 conc -4.0
  activity at 100 µM: -1%
[5]; Homo sapiens, MCF7, read-out: Percent Growth, log10 conc -5.0
  activity at 10 µM: -1%
[5]; Homo sapiens, MCF7, read-out: Percent Growth, log10 conc -6.0
  activity at 1 µM: 37%
[5]; Homo sapiens, MCF7, read-out: Percent Growth, log10 conc -8.0
  activity at 0.01 µM: 56%
[5]; Homo sapiens, MCF7, read-out: Percent Growth, log10 conc -9.0
  activity at 0.001 µM: 73%
[5]; Homo sapiens, MCF7, read-out: Percent Growth, log10 conc -10.0
  activity at 0.0001 µM: 91%
[6]; log10 conc -6.0, 1 µM
  Percent Growth: 11%
[6]; log10 conc -7.0, 0.1 µM
  Percent Growth: 24% and 45%
[6]; log10 conc -8.0, 0.01 µM
  Percent Growth: 45% and 66%
[7]
  Percent Growth: 10%
MOLT-4 leukemia cells; log10 conc -4.0, 100 µM
  Percent Growth: -5%
MOLT-4 leukemia cells; log10 conc -5.0
  Percent Growth: 5%
MOLT-4 leukemia cells; log10 conc -6.0, 1 µM
  Percent Growth: 5%
MOLT-4 leukemia cells; log10 conc -8.0
  Percent Growth: 34%
MOLT-4 leukemia cells; log10 conc -9.0, 0.001 µM
  Percent Growth: 32%
MOLT-4 leukemia cells; log10 conc -10.0, 0.0001 µM
  Percent Growth: 106%
SF-539 CNS cancer cells; log10 conc -4.0, 100 µM
  Percent Growth: -27%
SF-539 CNS cancer cells; log10 conc -5.0
  Percent Growth: -31%
SF-539 CNS cancer cells; log10 conc -6.0, 1 µM
  Percent Growth: -24%
SF-539 CNS cancer cells; log10 conc -7.0, 0.1 µM
  Percent Growth: -24%
SF-539 CNS cancer cells; log10 conc -8.0
  Percent Growth: -16%
SF-539 CNS cancer cells; log10 conc -9.0, 0.001 µM
  Percent Growth: 19%
SF-539 CNS cancer cells; log10 conc -10.0, 0.0001 µM
  Percent Growth: 100%
A498 renal cancer cells [8]; A498, read-out: Percent Growth, log10 conc -4.0
  activity at 100 µM: 1%
A498 renal cancer cells [8]; A498, read-out: Percent Growth, log10 conc -5.0
  activity at 10 µM: 3%
A498 renal cancer cells [8]; A498, read-out: Percent Growth, log10 conc -9.0
  activity at 0.001 µM: 72%
A498 renal cancer cells [8]; A498, read-out: Percent Growth, log10 conc -10.0
  activity at 0.0001 µM: 77%
[9]; log10 conc -6.0, 1 µM
  Percent Growth: 25%
[9]; log10 conc -8.0, 0.01 µM
  Percent Growth: 24%
A498 renal cancer cells [10]
  Percent Growth: 25%
[11]; SK-OV-3, read-out: Percent Growth, log10 conc -4.0
  activity at 100 µM: 9%
[11]; SK-OV-3, read-out: Percent Growth, log10 conc -5.0
  activity at 10 µM: 15%
[11]; SK-OV-3, read-out: Percent Growth, log10 conc -6.0
  activity at 1 µM: 14%
[11]; SK-OV-3, read-out: Percent Growth, log10 conc -7.0
  activity at 0.1 µM: 19%
[11]; SK-OV-3, read-out: Percent Growth, log10 conc -8.0
  activity at 0.01 µM: 12%
[11]; SK-OV-3, read-out: Percent Growth, log10 conc -9.0
  activity at 0.001 µM: 44%
[11]; SK-OV-3, read-out: Percent Growth, log10 conc -10.0
  activity at 0.0001 µM: 95%
tubulin; drug to tubulin molar concentration ratio of about 0.030
  activity relative to colchicine (inhibition of microtubule assembly): about 20%
tubulin; in vitro
  inhibition of microtubule formation compared with colchicine: more active than colchicine
tubulin; in vitro, read-out: LC50 (inhibition of microtubule assembly in vitro)
  pIC50: 6.52
tubulin; increasing amounts of drug, tubulin 2.1×10^-5 M
  plateau turbidity: decrease in plateau turbidity
[12]; read-out: Percent Growth, log10 conc -4.0
  activity at 100 µM: 16%
[12]; read-out: Percent Growth, log10 conc -5.0
  activity at 10 µM: 27%
[12]; read-out: Percent Growth, log10 conc -7.0
  activity at 0.1 µM: 38%
[12]; read-out: Percent Growth, log10 conc -8.0
  activity at 0.01 µM: 39%
[12]; read-out: Percent Growth, log10 conc -9.0
  activity at 0.001 µM: 27%
[12]; read-out: Percent Growth, log10 conc -10.0
  activity at 0.0001 µM: 103%
[13]; OVCAR-3, read-out: Percent Growth, log10 conc -4.0
  activity at 100 µM: 5%
[13]; OVCAR-3, read-out: Percent Growth, log10 conc -5.0
  activity at 10 µM: 5%
[13]; OVCAR-3, read-out: Percent Growth, log10 conc -9.0
  activity at 0.001 µM: -11%
[13]; OVCAR-3, read-out: Percent Growth, log10 conc -10.0
  activity at 0.0001 µM: 97%
[14]; HOP-62
  GI50: 7.68 nM
[14]; HOP-62, read-out: Percent Growth, log10 conc -4.0
  activity at 100 µM: 22%
[14]; HOP-62, read-out: Percent Growth, log10 conc -5.0
  activity at 10 µM: 20%
[14]; HOP-62, read-out: Percent Growth, log10 conc -6.0
  activity at 1 µM: 44%
[14]; HOP-62, read-out: Percent Growth, log10 conc -7.0
  activity at 0.1 µM: 46%
[14]; HOP-62, read-out: Percent Growth, log10 conc -8.0
  activity at 0.01 µM: 47%
[14]; HOP-62, read-out: Percent Growth, log10 conc -9.0
  activity at 0.001 µM: 77%
[14]; HOP-62, read-out: Percent Growth, log10 conc -10.0
  activity at 0.0001 µM: 101%
U251 CNS cancer cells; log10 conc -4.0, 100 µM
  Percent Growth: 4%
U251 CNS cancer cells; log10 conc -5.0
  Percent Growth: 3%
U251 CNS cancer cells; log10 conc -9.0, 0.001 µM
  Percent Growth: 23%
U251 CNS cancer cells; log10 conc -10.0, 0.0001 µM
  Percent Growth: 96%
SNB-75 CNS cancer cells; log10 conc -4.0, 100 µM
  Percent Growth: 39%
SNB-75 CNS cancer cells; log10 conc -5.0
  Percent Growth: 43%
SNB-75 CNS cancer cells; log10 conc -6.0, 1 µM
  Percent Growth: 52% and 43%
SNB-75 CNS cancer cells; log10 conc -7.0, 0.1 µM
  Percent Growth: 46% and 50%
SNB-75 CNS cancer cells; log10 conc -8.0, 0.01 µM
  Percent Growth: 41% and 44%
SNB-75 CNS cancer cells; log10 conc -9.0, 0.001 µM
  Percent Growth: 17%
SNB-75 CNS cancer cells; log10 conc -10.0, 0.0001 µM
  Percent Growth: 96%
[15]
  TGI: > 100000 nM
[16]; RXF 393, read-out: LC50
  CC50: > 1000 nM
[16]; RXF 393, read-out: Percent Growth, log10 conc -6.0
  activity at 1 µM: 61%
[16]; RXF 393, read-out: Percent Growth, log10 conc -7.0
  activity at 0.1 µM: 55%
[16]; RXF 393, read-out: Percent Growth, log10 conc -8.0
  activity at 0.01 µM: 35%
[16]; RXF 393, read-out: Percent Growth, log10 conc -9.0
  activity at 0.001 µM: 42%
[16]; RXF 393, read-out: Percent Growth, log10 conc -10.0
  activity at 0.0001 µM: 101%
